In patent US11524966B1 (Valo Early Discovery, Inc., priority 2017, dated 2022):

biological target: T1, USP25 (USP25-His6, Boston Biochem E-546) (Homo sapiens, UniProt Q9UHP3); assay: Ubiquitin-Rhodamine 110 Assay for USP25 Activity, Example A-2; assay type: biochemical; settings: Ubiquitin-Rhodamine 110 assay, Example A-2; read-out: USP25 A-2 IC50 range
T1 construct: His6; purchased Boston Biochem E-546
T1 sequence (Q9UHP3 1-1055): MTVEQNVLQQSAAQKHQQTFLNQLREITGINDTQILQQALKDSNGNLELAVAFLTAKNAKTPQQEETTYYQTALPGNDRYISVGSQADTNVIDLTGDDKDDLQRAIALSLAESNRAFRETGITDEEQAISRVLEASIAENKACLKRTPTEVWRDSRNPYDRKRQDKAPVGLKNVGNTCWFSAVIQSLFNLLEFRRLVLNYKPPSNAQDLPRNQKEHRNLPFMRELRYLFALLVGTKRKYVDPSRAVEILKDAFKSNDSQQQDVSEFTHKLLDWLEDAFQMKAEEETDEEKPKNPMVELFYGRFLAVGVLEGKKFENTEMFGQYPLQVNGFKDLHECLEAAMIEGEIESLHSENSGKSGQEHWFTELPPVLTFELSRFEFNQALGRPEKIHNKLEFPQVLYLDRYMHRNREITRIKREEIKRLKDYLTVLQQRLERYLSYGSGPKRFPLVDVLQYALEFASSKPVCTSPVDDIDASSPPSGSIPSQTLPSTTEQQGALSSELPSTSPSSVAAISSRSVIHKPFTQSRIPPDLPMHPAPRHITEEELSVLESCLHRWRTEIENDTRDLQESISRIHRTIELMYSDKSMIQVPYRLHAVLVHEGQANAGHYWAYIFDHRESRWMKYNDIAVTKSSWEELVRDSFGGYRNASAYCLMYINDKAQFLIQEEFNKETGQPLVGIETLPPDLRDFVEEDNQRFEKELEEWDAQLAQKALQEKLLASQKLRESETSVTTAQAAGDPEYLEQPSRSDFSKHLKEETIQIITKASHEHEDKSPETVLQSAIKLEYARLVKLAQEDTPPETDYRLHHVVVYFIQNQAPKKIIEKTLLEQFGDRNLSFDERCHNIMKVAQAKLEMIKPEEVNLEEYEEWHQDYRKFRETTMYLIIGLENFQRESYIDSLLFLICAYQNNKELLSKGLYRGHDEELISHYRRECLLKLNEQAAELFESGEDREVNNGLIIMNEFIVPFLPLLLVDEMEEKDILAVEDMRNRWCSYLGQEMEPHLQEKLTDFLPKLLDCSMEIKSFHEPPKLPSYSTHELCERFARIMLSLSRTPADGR
In short: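 Inhibition is quantified as IC50 by 4-parameter fit of fluorescence (485/535 nm) from Ub-Rh110 hydrolysis. Enzyme USP25-His6 at 75 pM with 30 min compound preincubation, then 25 nM substrate for 45 min at room temperature in pH 8.0 Tris buffer containing BME.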

With COC[C@H]1CN(c2ccc3c(c2)OC[C@H](NC(=O)c2sc4nc(C)ccc4c2N)C3)CCN1 [Example 157, 3-amino-N-[(3R)-7-[(3R)-3-(methoxymethyl)piperazin-1-yl]-3,4-dihydro-2H-1-benzopyran-3-yl]-6-methylthieno[2,3-b]pyridine-2-carboxamide] as the compound, how does the IC50 read?
The IC50 was 200 to 2000 nM.

Cc1ccc2c(N)c(C(=O)N[C@H]3COc4c(ccc(N5CC6CCC(C5)N6)c4F)C3)sc2n1 [Example 103, 3-amino-N-[(3R)-7-{3,8-diazabicyclo[3.2.1]octan-3-yl}-8-fluoro-3,4-dihydro-2H-1-benzopyran-3-yl]-6-methylthieno[2,3-b]pyridine-2-carboxamide] was tested. Which IC50 did it give?
Its IC50 is 50 to 200 nM.

With COC[C@@H]1CN(c2ccc3c(c2)OC[C@H](NC(=O)c2sc4nc(C)ccc4c2N)C3)CCN1 [Example 158, 3-amino-N-[(3R)-7-[(3S)-3-(methoxymethyl)piperazin-1-yl]-3,4-dihydro-2H-1-benzopyran-3-yl]-6-methylthieno[2,3-b]pyridine-2-carboxamide] as the compound, how does the IC50 read?
The IC50 was 200 to 2000 nM.

With COC[C@@H]1CN(c2ccc3c(c2)OC[C@H](NC(=O)c2sc4nc(C)ccc4c2N)C3)C[C@H]1N [Example 163, 3-amino-N-[(3R)-7-[(3S,4R)-3-amino-4-(methoxymethyl)pyrrolidin-1-yl]-3,4-dihydro-2H-1-benzopyran-3-yl]-6-methylthieno[2,3-b]pyridine-2-carboxamide] as the compound, how does the IC50 read?
The IC50 was 200 to 2000 nM.

With CCn1ccc2cc(C(=O)N[C@H]3CCc4cc(N5C[C@H](OC)[C@@H](N)C5)cc(F)c4C3)nnc21 [Example 138, N-[(2S)-6-[(3S,4S)-3-amino-4-methoxypyrrolidin-1-yl]-8-fluoro-1,2,3,4-tetrahydronaphthalen-2-yl]-7-ethyl-7H-pyrrolo[2,3-c]pyridazine-3-carboxamide] as the compound, how does the IC50 read?
The IC50 was greater than 2000 nM.

Which IC50 does the source give for Cc1ccc2c(N)c(C(=O)N[C@H]3CCc4cc(N5CC6CNCC(C5)O6)c(F)cc4C3)sc2n1 [Example 101, 3-amino-N-[(2S)-7-fluoro-6-{9-oxa-3,7-diazabicyclo[3.3.1]nonan-3-yl}-1,2,3,4-tetrahydronaphthalen-2-yl]-6-methylthieno[2,3-b]pyridine-2-carboxamide] here?
Its IC50 is 200 to 2000 nM.

How did the IC50 turn out when Cc1ccc2c(N)c(C(=O)N[C@H]3COc4cc(N5CC6CNCC(C5)O6)c(C#N)c(F)c4C3)sc2n1 [Example 127, 3-amino-N-[(3R)-6-cyano-5-fluoro-7-{9-oxa-3,7-diazabicyclo[3.3.1]nonan-3-yl}-3,4-dihydro-2H-1-benzopyran-3-yl]-6-methylthieno[2,3-b]pyridine-2-carboxamide] was run?
Its IC50 is 50 to 200 nM.

For CCO[C@H]1CN(c2ccc3c(c2)OC[C@H](NC(=O)c2sc4nc(C)ccc4c2N)C3)C[C@H]1N [Example 152], which IC50 is on record?
Its IC50 is 200 to 2000 nM.

Cc1ccc2c(N)c(C(=O)N[C@H]3COc4cc(N5C[C@H](N)[C@H](C(F)F)C5)ccc4C3)sc2n1 [Example 167, 3-amino-N-[(3R)-7-[(3R,4R)-3-amino-4-(difluoromethyl)pyrrolidin-1-yl]-3,4-dihydro-2H-1-benzopyran-3-yl]-6-methylthieno[2,3-b]pyridine-2-carboxamide] was tested. Which IC50 did it give?
The IC50 was 200 to 2000 nM.

Which IC50 does the source give for Cc1nc2sc(C(=O)N[C@H]3COc4cc(N5CC6CCC(C5)N6)c(F)c(F)c4C3)c(N)c2s1 [Example 108, 6-amino-N-[(3R)-7-{3,8-diazabicyclo[3.2.1]octan-3-yl}-5,6-difluoro-3,4-dihydro-2H-1-benzopyran-3-yl]-2-methylthieno[2,3-d][1,3]thiazole-5-carboxamide] here?
The IC50 was 50 to 200 nM.

For Cc1ccc2c(N)c(C(=O)N[C@H]3COc4cc(N5C[C@H](OC6CC6)[C@@H](N)C5)ccc4C3)sc2n1 [Example 140, 3-amino-N-[(3R)-7-[(3S,4S)-3-amino-4-cyclopropoxypyrrolidin-1-yl]-3,4-dihydro-2H-1-benzopyran-3-yl]-6-methylthieno[2,3-b]pyridine-2-carboxamide], which IC50 is on record?
The IC50 was 200 to 2000 nM.

Cc1ccc2c(N)c(C(=O)N[C@@H]3CCc4c(ccc(N5CC6CNCC(C5)O6)c4F)C3)sc2n1 [Example 100, 3-amino-N-[(2R)-5-fluoro-6-{9-oxa-3,7-diazabicyclo[3.3.1]nonan-3-yl}-1,2,3,4-tetrahydronaphthalen-2-yl]-6-methylthieno[2,3-b]pyridine-2-carboxamide] was tested. Which IC50 did it give?
The IC50 was greater than 2000 nM.

Cc1ccc2c(N)c(C(=O)N[C@H]3COc4cc(N5C[C@@H]6OCCN[C@@H]6C5)ccc4C3)sc2n1 [Example 154, N-[(3R)-7-[(4aR,7aS)-octahydropyrrolo[3,4-b]morpholin-6-yl]-3,4-dihydro-2H-1-benzopyran-3-yl]-3-amino-6-methylthieno[2,3-b]pyridine-2-carboxamide] was tested. Which IC50 did it give?
Its IC50 is 200 to 2000 nM.

With Cc1ccc2c(N)c(C(=O)N[C@H]3COc4c(F)c(N5C[C@@H]6C[C@H]5CN6)cc(F)c4C3)sc2n1 [Example 110, 3-amino-N-[(3R)-7-[(1S,4S)-2,5-diazabicyclo[2.2.1]heptan-2-yl]-5,8-difluoro-3,4-dihydro-2H-1-benzopyran-3-yl]-6-methylthieno[2,3-b]pyridine-2-carboxamide] as the compound, how does the IC50 read?
The IC50 was 50 to 200 nM.

How did the IC50 turn out when COC[C@H]1CNCCN1c1ccc2c(c1)OC[C@H](NC(=O)c1sc3nc(C)ccc3c1N)C2 [Example 156, 3-amino-N-[(3R)-7-[(21)-2-(methoxymethyl)piperazin-1-yl]-3,4-dihydro-2H-1-benzopyran-3-yl]-6-methylthieno[2,3-b]pyridine-2-carboxamide] was run?
The IC50 was 200 to 2000 nM.

With Cc1ccc2c(N)c(C(=O)N[C@H]3COc4cc(N5C[C@@H](N)[C@@H](C(F)F)C5)ccc4C3)sc2n1 [Example 168, 3-amino-N-[(3R)-7-[(3S,4S)-3-amino-4-(difluoromethyl)pyrrolidin-1-yl]-3,4-dihydro-2H-1-benzopyran-3-yl]-6-methylthieno[2,3-b]pyridine-2-carboxamide] as the compound, how does the IC50 read?
The IC50 was 200 to 2000 nM.

For CO[C@@H]1CN(c2cc(F)c3c(c2)OC[C@H](NC(=O)c2sc4nc(C)ccc4c2N)C3)C[C@@H]1N [Example 145, 3-amino-N-[(3R)-7-[(3S,4R)-3-amino-4-methoxypyrrolidin-1-yl]-5-fluoro-3,4-dihydro-2H-1-benzopyran-3-yl]-6-methylthieno[2,3-b]pyridine-2-carboxamide], which IC50 is on record?
The IC50 was 200 to 2000 nM.

Cc1ccc2c(N)c(C(=O)N[C@H]3COc4c(C#N)c(N5CC6CNCC(C5)O6)cc(F)c4C3)sc2n1 [Example 96, 3-amino-N-[(3R)-8-cyano-5-fluoro-7-{9-oxa-3,7-diazabicyclo[3.3.1]nonan-3-yl}-3,4-dihydro-2H-1-benzopyran-3-yl]-6-methylthieno[2,3-b]pyridine-2-carboxamide] was tested. Which IC50 did it give?
Its IC50 is 50 to 200 nM.

With CO[C@H]1CN(c2cc(F)c3c(c2)CC[C@@H](NC(=O)c2sc4nc(C)ccc4c2N)C3)C[C@@H]1N [Example 137, 3-amino-N-[(2R)-6-[(3S,4S)-3-amino-4-methoxypyrrolidin-1-yl]-8-fluoro-1,2,3,4-tetrahydronaphthalen-2-yl]-6-methylthieno[2,3-b]pyridine-2-carboxamide] as the compound, how does the IC50 read?
Its IC50 is greater than 2000 nM.

For Cc1ccc2c(N)c(C(=O)N[C@H]3COc4cc(N5C[C@@H]6C[C@H]5CN6)c(F)c(F)c4C3)sc2n1 [Example 112, 3-amino-N-[(3R)-7-[(1S,4S)-2,5-diazabicyclo[2.2.1]heptan-2-yl]-5,6-difluoro-3,4-dihydro-2H-1-benzopyran-3-yl]-6-methylthieno[2,3-b]pyridine-2-carboxamide], which IC50 is on record?
The IC50 was 200 to 2000 nM.

How did the IC50 turn out when COc1ccc2c(N)c(C(=O)N[C@H]3CCc4cc(N5C[C@H](OC)[C@@H](N)C5)ccc4C3)sc2n1 [Example 134, 3-amino-N-[(2S)-6-[(3S,4S)-3-amino-4-methoxypyrrolidin-1-yl]-1,2,3,4-tetrahydronaphthalen-2-yl]-6-methoxythieno[2,3-b]pyridine-2-carboxamide] was run?
Its IC50 is greater than 2000 nM.

For CO[C@H]1CN(c2ccc3c(c2)OC[C@H](NC(=O)c2sc4nc(C)ccc4c2N)C3)C[C@H]1N [Example 122, 3-amino-N-[(3R)-7-[(3R,4S)-3-amino-4-methoxypyrrolidin-1-yl]-3,4-dihydro-2H-1-benzopyran-3-yl]-6-methylthieno[2,3-b]pyridine-2-carboxamide], which IC50 is on record?
Its IC50 is 200 to 2000 nM.

How did the IC50 turn out when Cc1ccc2c(N)c(C(=O)N[C@H]3COc4c(C#N)c(N5CC6CCC(C5)N6)cc(F)c4C3)sc2n1 [Example 95, 3-amino-N-[(3R)-8-cyano-7-{3,8-diazabicyclo[3.2.1]octan-3-yl}-5-fluoro-3,4-dihydro-2H-1-benzopyran-3-yl]-6-methylthieno[2,3-b]pyridine-2-carboxamide] was run?
The IC50 was 200 to 2000 nM.
